Laboratory results taken from PMC10525570, “Antiviral Activity of Anthranilamide Peptidomimetics against Herpes Simplex Virus 1 and a Coronavirus” (Antibiotics, 2023).
Entries after “also recorded” stand apart in the source; their conditions may differ. Read-outs that look alike come from different tables or passages of the source.

Experiments:
MHV-1 [1] = assay: Virus pre-treatment (direct virus inactivation) plaque assay, MHV-1; format: cell-based, Murine hepatitis virus 1; details: for Plaque formation, MHV-1: quadruplicate
Description: (§1) The peptidomimetics were evaluated for their antiviral activity using three different assays: virus pre-treatment, cell pre-treatment, and post-treatment assays, with the main distinction being the timing of the compound addition. Cells were seeded in 24-well plates at a density of 2.5 × 10^5 cells/well and incubated for 48 h at 37 °C. In all assays, the compounds were added to DMEM medium in the absence of fetal bovine serum (FBS). All experiments were performed in duplicate with two independent replicates. The inhibitory effect on viral infectivity was determined by comparing the number of plaques in wells treated with the test compounds (peptidomimetics) to the plaques observed in the control wells (cells infected with the virus without test compounds).
(§2) Virus pre-treatment assay: In this assay, the test compounds were added to the virus (1 × 10^3 PFU/mL) and incubated for 3 h at 37 °C. After incubation, each mixture (virus/peptide) was diluted in DMEM medium containing 10% FBS to neutralize the peptides or mimics. The dilutions were then added to the cell monolayers for 1 h, followed by the addition of an agar overlay containing 1% agar. The cells were further incubated for 72 h, after which they were fixed, stained, and the number of plaques was counted.

HSV-1 [2] = assay: Virus pre-treatment (direct virus inactivation) plaque assay, HSV-1; format: cell-based, herpes simplex virus 1
Description: as §1, §2

[3] = MTT cytotoxicity assay, Vero cells; format: cell-based; details: African green monkey, read-out: HSV-1 (Vero Cells) CC50
Description: (§3) The MTT assay was used to assess the cytotoxicity of compounds against the viral host (A9 and Vero) cells. This assay relies on the reduction of the yellow MTT compound to a dark blue formazan product by viable and metabolically active cells. Viral host cells were cultured in 96-well plates and incubated at 37 °C in a 5% CO2 atmosphere, treated with various concentrations of the test compounds together with further incubation for 24 h. After incubation, 100 μL of a 5 mg/mL MTT solution was added to each well and incubated for 2–4 h at 37 °C. The supernatant was then discarded, and 100 μL of 100% DMSO was added to dissolve the formazan salts with vigorous agitation for 10 min at room temperature. The absorbance at 540 nm was measured using a spectrophotometer. Cytotoxicity was determined by comparing the absorbance values in the test and control wells expressed as a percentage. A total of 100 μL DMSO was used for negative control (ctr−), while 100 μL of culture medium represented the positive control (ctr+). All experiments were repeated three times, and the mean values with standard deviations are reported. Nonlinear regression analysis was performed using GraphPad Prism software to determine the CC50 (concentration at which 50% of cells are killed).

MHV-1 [4] = assay: Cell pre-treatment plaque assay, MHV-1 on A9 cells; format: cell-based, Murine hepatitis virus 1; details: A9 cells preincubated 24 h with 15.625, 7.5, 3.75 µM before infection
Description: (§4) In order to explore additional potential mechanisms, the ability of compounds 11 and 14 to reduce the ability of the two viruses to bind to their respective mammalian host cells was examined. Three concentrations (15.625 µM, 7.5 µM, and 3.75 µM) of compounds 11 and 14, all below their cytotoxic thresholds, were allowed to interact with A9 and Vero cells for 24-h before virus infection. The impact of these interactions was assessed using a plaque assay to determine inhibitory effects.
as §1, with “All experiments were performed in duplicate with two independent replicates.” left out
(§5) Cell pre-treatment assay: The cells were treated with the test compounds and incubated for 24 h at 37 °C. […] The cells were then fixed, stained, and the number of plaques was determined.

HSV-1 [5] = assay: Cell pre-treatment plaque assay, HSV-1 on Vero cells; format: cell-based, herpes simplex virus 1; details: Vero cells preincubated 24 h with 15.625, 7.5, 3.75 µM before infection
Description: as §4
as §1, with “All experiments were performed in duplicate with two independent replicates.” left out
as §5

MHV-1 [6] = assay: Post-viral infection plaque assay, MHV-1 on A9 cells; format: cell-based, Murine hepatitis virus 1; details: compound added 3 h post-infection, 15.625, 7.5, 3.75 µM
Description: (§6) In order to determine if compounds 11 and 14 were able to inhibit aspects of viral infection after the initial binding stage to host mammalian cells, the same concentrations of the compounds were administered to the cells after a 3-h interval post-infection.
as §1
(§7) Post-viral infection assay: The cells were first incubated with viruses (1 × 10^3 PFU/mL) for 3 h at 37 °C to ensure complete cellular entry. Following that, the test compounds were added and incubated for 24 h at 37 °C. […] The cells were then fixed, stained, and the number of plaques was determined.

HSV-1 [7] = assay: Post-viral infection plaque assay, HSV-1 on Vero cells; format: cell-based, herpes simplex virus 1; details: compound added 3 h post-infection, 15.625, 7.5, 3.75 µM
Description: as §6, §1, §7

[8] = MTT cytotoxicity assay, A9 cells; format: cell-based; details: mouse, read-out: MHV-1 (A9 Cells) CC50
Description: as §3

HSV-1 [9] = assay: Transmission electron microscopy of treated HSV-1; parameters: species or system herpes simplex virus 1; details: virus treated at 37 °C for 2 h
Description: (§8) The viruses were treated with compound 11 for MHV-1 and 14 for HSV-1, both at 37 °C for 2 h. Subsequently, 10 µL of the treated mixture was placed on a glow-discharged carbon-coated 200 mesh copper grid and allowed to evaporate for 5 min. The sample was then stained with 1% phosphotungstic acid (pH 6.5) for 30 s to improve the contrast. After air-drying, the grids were examined using an FEI Tecnai G2 20 TEM machine.

MHV-1 [10] = assay: Transmission electron microscopy of treated MHV-1; parameters: species or system Murine hepatitis virus 1; details: virus treated at 37 °C for 2 h
Description: as §8

[11] = Murine coronavirus, virus pre-treatment 3 h at 37 °C, plaque assay, read-out: MHV-1 IC50
[12] = Human alphaherpesvirus 1, virus pre-treatment 3 h at 37 °C, plaque assay, read-out: HSV-1 IC50
[13] = Murine coronavirus, Table 2, A9 cells, read-out: MHV-1 (A9 Cells) IC50
[14] = Human alphaherpesvirus 1, Table 2, Vero cells, read-out: HSV-1 (Vero Cells) IC50

COc1ccc(NC(=O)c2ccc3ccccc3c2)c(C(=O)NC(Cc2c[nH]c3ccccc23)C(=O)NCCNC(=N)N)c1 (stereo not shown) [Compound 10]
IC50 (MHV-1 [1]; [11]): > 62.5 µM
IC50 (HSV-1 [2]; [12]): > 62.5 µM

COc1ccc(NC(=O)c2ccc3ccccc3c2)c(C(=O)NC(Cc2c[nH]c3ccccc23)C(=O)NCCN)c1 (stereo not shown) [Compound 5]
IC50 (MHV-1 [1]; [11]): > 62.5 µM
IC50 (HSV-1 [2]; [12]): > 62.5 µM

N=C(N)NCCNC(=O)C(Cc1c[nH]c2ccccc12)NC(=O)c1cc(Br)ccc1NC(=O)c1ccc2ccccc2c1 (stereo not shown) [Compound 7]
IC50 (MHV-1 [1]; [13]): > 62.5 µM
IC50 (MHV-1 [1]; [11]): > 62.5 µM
IC50 (HSV-1 [2]; [14]): 32.8 µM
IC50 (HSV-1 [2]; [12]): 32.7 µM
CC50 at 24 h [3]: 127 µM

NCCNC(=O)C(Cc1c[nH]c2ccccc12)NC(=O)c1cc(-c2ccccc2-c2ccccc2)ccc1N (stereo not shown) [Compound 14]
IC50 (MHV-1 [1]; [13]): 6.3 µM
IC50 (MHV-1 [1]; [11]): 6.3 µM
Plaque formation, HSV-1 (HSV-1 [2]; HSV-1 treated with 31.25 µM): complete inhibition of plaque formation
Plaque formation, HSV-1 (HSV-1 [2]; HSV-1 treated with 62.5 µM, four replicates): complete inhibition of plaque formation
IC50 (HSV-1 [2]; [14]): 13 µM
inhibition at 13 µM (HSV-1 [2]; Human alphaherpesvirus 1, at 13 µM): > 50%
IC50 (HSV-1 [2]; [12]): 13 µM
Inhibition of MHV-1 infection, cell pre-treatment (MHV-1 [4]): none of the compounds could inhibit virus infection; also recorded: Neither of the compounds was able to affect viral replication
Inhibition of HSV-1 infection, cell pre-treatment (HSV-1 [5]): none of the compounds could inhibit virus infection; also recorded: Neither of the compounds was able to affect viral replication
Antiviral activity against MHV-1, post-infection treatment (MHV-1 [6]): no noticeable antiviral activity; also recorded: Neither of the compounds was able to affect viral replication
Antiviral activity against HSV-1, post-infection treatment (HSV-1 [7]): no noticeable antiviral activity; also recorded: Neither of the compounds was able to affect viral replication
CC50 at 24 h [8]: 10.2 µM
CC50 at 24 h [3]: 15.2 µM
Effect on HSV-1 viral envelope (TEM) (HSV-1 [9]): partial disruption of the HSV-1 envelope; also recorded: partial destruction of the HSV-1 envelope

NCCNC(=O)C(Cc1c[nH]c2ccccc12)NC(=O)c1cc(-c2ccc3ccccc3c2)ccc1N (stereo not shown) [Compound 11]
Plaque formation, MHV-1 (MHV-1 [1]; MHV-1 treated with 31.25 µM): complete inhibition of plaque formation
Plaque formation, MHV-1 (MHV-1 [1]; MHV-1 treated with 62.5 µM): complete inhibition of plaque formation
IC50 (MHV-1 [1]; Murine coronavirus, read-out: MHV-1 IC50): 2.38 µM
IC50 (MHV-1 [1]; [13]): 2.18 µM
inhibition at 2.18 µM (MHV-1 [1]; Murine coronavirus, at 2.18 µM): > 50%
IC50 (HSV-1 [2]; Human alphaherpesvirus 1, read-out: HSV-1 IC50): 34.9 µM
IC50 (HSV-1 [2]; [14]): 34.9 µM
Inhibition of MHV-1 infection, cell pre-treatment (MHV-1 [4]): none of the compounds could inhibit virus infection; also recorded: Neither of the compounds was able to affect viral replication
Inhibition of HSV-1 infection, cell pre-treatment (HSV-1 [5]): none of the compounds could inhibit virus infection; also recorded: Neither of the compounds was able to affect viral replication
Antiviral activity against MHV-1, post-infection treatment (MHV-1 [6]): no noticeable antiviral activity; also recorded: Neither of the compounds was able to affect viral replication
Antiviral activity against HSV-1, post-infection treatment (HSV-1 [7]): no noticeable antiviral activity; also recorded: Neither of the compounds was able to affect viral replication
CC50 at 24 h [8]: 20.5 µM
CC50 at 24 h [3]: 16.7 µM
Effect on MHV-1 viral envelope (TEM) (MHV-1 [10]): disrupted viral envelope; also recorded: complete disruption of the viral envelope

NCCCCC(N)C(=O)NCCNC(=O)C(Cc1c[nH]c2ccccc12)NC(=O)c1cc(Br)ccc1NC(=O)c1ccc(-c2ccccc2)cc1 (stereo not shown) [Compound 16]
IC50 (MHV-1 [1]; [13]): 22.6 µM
IC50 (MHV-1 [1]; [11]): 22.5 µM
IC50 (HSV-1 [2]; [14]): > 62.5 µM
IC50 (HSV-1 [2]; [12]): > 62.5 µM
CC50 at 24 h [8]: 81.6 µM

NCCCCC(N)C(=O)NCCNC(=O)C(Cc1c[nH]c2ccccc12)NC(=O)c1cc(Br)ccc1NC(=O)c1ccc2ccccc2c1 (stereo not shown) [Compound 15]
IC50 (MHV-1 [1]; [13]): 11.1 µM
IC50 (MHV-1 [1]; [11]): 11.1 µM
IC50 (HSV-1 [2]; [14]): > 62.5 µM
IC50 (HSV-1 [2]; [12]): > 62.5 µM
CC50 at 24 h [8]: 62.7 µM

NCCNC(=O)C(Cc1c[nH]c2ccccc12)NC(=O)c1cc(-c2ccc(-c3ccccc3)cc2)ccc1N (stereo not shown) [Compound 12]
IC50 (MHV-1 [1]; [11]): > 62.5 µM
IC50 (HSV-1 [2]; [12]): > 62.5 µM

NCCNC(=O)C(Cc1c[nH]c2ccccc12)NC(=O)c1cc(F)ccc1NC(=O)c1ccc2ccccc2c1 (stereo not shown) [Compound 3]
IC50 (MHV-1 [1]; [11]): > 62.5 µM
IC50 (HSV-1 [2]; [12]): > 62.5 µM

NCCNC(=O)C(Cc1c[nH]c2ccccc12)NC(=O)c1cc(Br)ccc1NC(=O)c1ccc2ccccc2c1 (stereo not shown) [Compound 2]
IC50 (MHV-1 [1]; [11]): > 62.5 µM
IC50 (HSV-1 [2]; [12]): > 62.5 µM

NCCNC(=O)C(Cc1c[nH]c2ccccc12)NC(=O)c1cc(Cl)ccc1NC(=O)c1ccc2ccccc2c1 (stereo not shown) [Compound 4]
IC50 (MHV-1 [1]; [11]): > 62.5 µM
IC50 (HSV-1 [2]; [12]): > 62.5 µM

NCCCCC(N)C(=O)NCCNC(=O)C(Cc1c[nH]c2ccccc12)NC(=O)c1cc(Br)ccc1NC(=O)c1cccc(-c2ccccc2)c1 (stereo not shown) [Compound 17]
IC50 (MHV-1 [1]; [13]): 11.8 µM
IC50 (MHV-1 [1]; [11]): 11.8 µM
IC50 (HSV-1 [2]; [14]): > 62.5 µM
IC50 (HSV-1 [2]; [12]): > 62.5 µM
CC50 at 24 h [8]: 114 µM

N=C(N)NCCNC(=O)C(Cc1c[nH]c2ccccc12)NC(=O)c1cc(F)ccc1NC(=O)c1ccc2ccccc2c1 (stereo not shown) [Compound 8]
IC50 (MHV-1 [1]; [11]): > 62.5 µM
IC50 (HSV-1 [2]; [12]): > 62.5 µM

N=C(N)NCCNC(=O)C(Cc1c[nH]c2ccccc12)NC(=O)c1ccccc1NC(=O)c1ccc2ccccc2c1 (stereo not shown) [Compound 6]
IC50 (MHV-1 [1]; [11]): > 62.5 µM
IC50 (HSV-1 [2]; [12]): > 62.5 µM

COc1ncc(-c2ccc(N)c(C(=O)NC(Cc3c[nH]c4ccccc34)C(=O)NCCN)c2)c(OC)n1 (stereo not shown) [Compound 13]
IC50 (MHV-1 [1]; [11]): > 62.5 µM
IC50 (HSV-1 [2]; [12]): > 62.5 µM

NCCNC(=O)C(Cc1c[nH]c2ccccc12)NC(=O)c1ccccc1NC(=O)c1ccc2ccccc2c1 (stereo not shown) [Compound 1]
IC50 (MHV-1 [1]; [11]): > 62.5 µM
IC50 (HSV-1 [2]; [12]): > 62.5 µM

N=C(N)NCCNC(=O)C(Cc1c[nH]c2ccccc12)NC(=O)c1cc(Cl)ccc1NC(=O)c1ccc2ccccc2c1 (stereo not shown) [Compound 9]
IC50 (MHV-1 [1]; [13]): > 62.5 µM
IC50 (MHV-1 [1]; [11]): > 62.5 µM
IC50 (HSV-1 [2]; [14]): 14.9 µM
IC50 (HSV-1 [2]; [12]): 14.8 µM
CC50 at 24 h [3]: 45 µM
